# Data as given in patent US7101878B1 (Agouron Pharmaceuticals, Inc., priority 1998, dated 2006).
# Molecular target: T1, mouse GnRH receptor (Mus musculus, UniProt Q01776)
# T1 construct: expressed in transfected cells; host or cells: 293 cells
# T1 sequence (Q01776 1-327): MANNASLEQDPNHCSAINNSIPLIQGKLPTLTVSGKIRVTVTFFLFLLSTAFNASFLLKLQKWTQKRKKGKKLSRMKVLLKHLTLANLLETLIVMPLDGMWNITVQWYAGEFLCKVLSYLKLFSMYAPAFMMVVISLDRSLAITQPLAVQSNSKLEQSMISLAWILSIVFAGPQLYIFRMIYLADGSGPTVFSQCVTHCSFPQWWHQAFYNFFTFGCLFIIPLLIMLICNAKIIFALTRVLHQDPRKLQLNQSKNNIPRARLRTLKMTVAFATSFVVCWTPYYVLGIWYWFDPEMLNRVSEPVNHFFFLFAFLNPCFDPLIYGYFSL
# Assay: Radioligand binding, 125I-GnRH-A, 293 cells expressing mouse GnRH receptors
# Conditions: 1 h, substrate remaining; 10 uM compound; closer to zero = closer to 100% inhibition; read-out: S%R 10 uM mGnRHR
# How it was run: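 Bound label captured on 0.1% polyethyleneimine-treated GF/C filters, washed three times with PBS, counted. IC50 derived; identical set-up for every species.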
row,Structure (SMILES),remaining activity at 10 µM
1,Cc1cc2c(cc1Cc1ccc(C(=O)NCCN3CCNC3=O)o1)C(C)(C)CCC2(C)C [Compound 520],-3%
2,Cc1cc2c(cc1Cc1ccc(C(=O)NCc3ccc(S(N)(=O)=O)cc3)o1)C(C)(C)CCC2(C)C [Compound 521],51%
3,Cc1cc2c(cc1Cc1ccc(C(=O)NCC3CCN(C(N)N)CC3)o1)C(C)(C)CCC2(C)C [Compound 522],9%
4,Cc1cc2c(cc1Cc1ccc(C(=O)NCCN3CCOCC3)o1)C(C)(C)CCC2(C)C [Compound 523],-4%
5,Cc1cc2c(cc1Cc1ccc(C(=O)NCCc3ccc(Cl)cc3Cl)o1)C(C)(C)CCC2(C)C [Compound 524],35%
6,Cc1cnc(CNC(=O)c2ccc(Cc3cc4c(cc3C)C(C)(C)CCC4(C)C)o2)cn1 [Compound 525],-9%
7,Cc1cc2c(cc1Cc1ccc(C(=O)NCCc3cccc(C(F)(F)F)c3)o1)C(C)(C)CCC2(C)C [Compound 526],9%
8,Cc1cc2c(cc1Cc1ccc(C(=O)NCC3Nc4ccccc4N3)o1)C(C)(C)CCC2(C)C [Compound 529],-3%
9,Cc1cc2c(cc1Cc1ccc(C(=O)NCC3CCN(c4ccnc(Cl)n4)CC3)o1)C(C)(C)CCC2(C)C [Compound 530],-4%
10,Cc1cc2c(cc1Cc1ccc(C(=O)NCCCO)o1)C(C)(C)CCC2(C)C [Compound 531],4%
11,CCN(CC)CCN(C)C(=O)c1ccc(Cc2cc3c(cc2C)C(C)(C)CCC3(C)C)o1 [Compound 532],12%
12,Cc1cc2c(cc1Cc1ccc(C(=O)NC(C)(C)C)o1)C(C)(C)CCC2(C)C [Compound 533],29%
13,Cc1cc2c(cc1Cc1ccc(C(=O)N(CCN3CCOCC3)Cc3ccccc3)o1)C(C)(C)CCC2(C)C [Compound 534],9%
14,Cc1cc2c(cc1Cc1ccc(C(=O)N(C)CCC=C3c4ccccc4CCc4ccccc43)o1)C(C)(C)CCC2(C)C [Compound 535],43%
15,CCOC(=O)CN(Cc1ccccc1)C(=O)c1ccc(Cc2cc3c(cc2C)C(C)(C)CCC3(C)C)o1 [Compound 536],38%
16,Cc1cc2c(cc1Cc1ccc(C(=O)N3CCN(CCO)CC3)o1)C(C)(C)CCC2(C)C [Compound 537],32%
17,C=CCN(CC=C)C(=O)c1ccc(Cc2cc3c(cc2C)C(C)(C)CCC3(C)C)o1 [Compound 538],17%
18,CCN(CCO)C(=O)c1ccc(Cc2cc3c(cc2C)C(C)(C)CCC3(C)C)o1 [Compound 539],19%
19,Cc1cc2c(cc1Cc1ccc(C(=O)N(CCN3CCCC3)Cc3ccccc3)o1)C(C)(C)CCC2(C)C [Compound 540],0%
20,Cc1cc2c(cc1Cc1ccc(C(=O)N(CCC#N)Cc3cccnc3)o1)C(C)(C)CCC2(C)C [Compound 541],9%
21,Cc1cc2c(cc1Cc1ccc(C(=O)N3CCC(C(=O)c4ccccc4)CC3)o1)C(C)(C)CCC2(C)C [Compound 542],42%
22,Cc1cc2c(cc1Cc1ccc(C(=O)N3CC=CCC3)o1)C(C)(C)CCC2(C)C [Compound 543],31%

row,Structure (SMILES),remaining activity at 10 µM
1,CC(=O)N(C)C1CCN(C(=O)c2ccc(Cc3cc4c(cc3C)C(C)(C)CCC4(C)C)o2)C1 (centres unmarked) [Compound 544],27%
2,Cc1cc2c(cc1Cc1ccc(C(=O)NCCc3ccccc3)o1)C(C)(C)CCC2(C)C [Compound 545],28%
3,Cc1cc2c(cc1Cc1ccc(C(=O)NC(C)C3CCCCC3)o1)C(C)(C)CCC2(C)C (centres unmarked) [Compound 546],29%
4,Cc1cc2c(cc1Cc1ccc(C(=O)N(Cc3ccc(C(C)C)cc3)Cc3cccnc3)o1)C(C)(C)CCC2(C)C [Compound 547],24%
5,Cc1cc2c(cc1Cc1ccc(C(=O)N(C)C3CCN(C)CC3)o1)C(C)(C)CCC2(C)C [Compound 548],12%
6,Cc1cc2c(cc1Cc1ccc(C(=O)N3CCC[C@H]3CNc3ccccc3)o1)C(C)(C)CCC2(C)C [Compound 549],48%
7,Cc1cc2c(cc1Cc1ccc(C(=O)NC3(CO)CCCC3)o1)C(C)(C)CCC2(C)C [Compound 550],3%
8,Cc1cc2c(cc1Cc1ccc(C(=O)N(Cc3cccnc3)Cc3cccc(C(F)(F)F)c3)o1)C(C)(C)CCC2(C)C [Compound 551],21%
9,Cc1cc2c(cc1Cc1ccc(C(=O)NCCn3c([N+](=O)[O-])cnc3C)o1)C(C)(C)CCC2(C)C [Compound 552],58%
10,COc1cccc(N2CCN(C(=O)c3ccc(Cc4cc5c(cc4C)C(C)(C)CCC5(C)C)o3)CC2)c1 [Compound 553],34%
11,COc1ccccc1N1CCN(C(=O)c2ccc(Cc3cc4c(cc3C)C(C)(C)CCC4(C)C)o2)CC1 [Compound 554],27%
12,Cc1cc2c(cc1Cc1ccc(C(=O)N3CCN(CC(=O)N4CCCC4)CC3)o1)C(C)(C)CCC2(C)C [Compound 555],21%
13,Cc1cc2c(cc1Cc1ccc(C(=O)NCC(C)O)o1)C(C)(C)CCC2(C)C (centres unmarked) [Compound 556],10%
14,COCC(C)NC(=O)c1ccc(Cc2cc3c(cc2C)C(C)(C)CCC3(C)C)o1 (centres unmarked) [Compound 557],10%
15,Cc1cc2c(cc1Cc1ccc(C(=O)NC(CO)CC3CCCCC3)o1)C(C)(C)CCC2(C)C (centres unmarked) [Compound 558],24%
16,Cc1cc2c(cc1Cc1ccc(C(=O)N(CC#N)Cc3ccccc3)o1)C(C)(C)CCC2(C)C [Compound 559],26%
17,Cc1cc2c(cc1Cc1ccc(C(=O)NCCCOC(C)C)o1)C(C)(C)CCC2(C)C [Compound 560],7%
18,Cc1cc2c(cc1Cc1ccc(C(=O)NCCSCCO)o1)C(C)(C)CCC2(C)C [Compound 561],0%
19,Cc1cc2c(cc1Cc1ccc(C(=O)N3CCc4ccccc4C3)o1)C(C)(C)CCC2(C)C [Compound 562],30%
20,Cc1cc2c(cc1Cc1ccc(C(=O)N3CCCCCCC3)o1)C(C)(C)CCC2(C)C [Compound 563],13%
21,Cc1cc2c(cc1Cc1ccc(C(=O)NC(C)(CO)CO)o1)C(C)(C)CCC2(C)C [Compound 564],45%
22,Cc1ccc(N2CCN(C(=O)c3ccc(Cc4cc5c(cc4C)C(C)(C)CCC5(C)C)o3)CC2)c(C)c1 [Compound 565],48%

row,Structure (SMILES),remaining activity at 10 µM
1,Cc1cc2c(cc1Cc1ccc(C(=O)NC[C@@H]3CCCC[C@H]3O)o1)C(C)(C)CCC2(C)C [Compound 566],3%
2,Cc1cc2c(cc1Cc1ccc(C(=O)N(CCCN3CCN(C)CC3)Cc3cc(C)n(-c4cccc(C(F)(F)F)c4)c3C)o1)C(C)(C)CCC2(C)C [Compound 567],-1%
3,CCC(C)CNC(=O)c1ccc(Cc2cc3c(cc2C)C(C)(C)CCC3(C)C)o1 (centres unmarked) [Compound 568],28%
4,Cc1cc2c(cc1Cc1ccc(C(=O)N3CCC(O)(c4ccc(Cl)cc4)CC3)o1)C(C)(C)CCC2(C)C [Compound 569],58%
5,Cc1cc2c(cc1Cc1ccc(C(=O)NC3c4ccccc4-c4ccccc43)o1)C(C)(C)CCC2(C)C [Compound 570],48%
6,Cc1cc2c(cc1Cc1ccc(C(=O)NCC3(O)CCCCC3)o1)C(C)(C)CCC2(C)C [Compound 571],36%
7,Cc1cc2c(cc1Cc1ccc(C(=O)NC3CCC3)o1)C(C)(C)CCC2(C)C [Compound 572],41%
8,Cc1cc2c(cc1Cc1ccc(C(=O)N3CCC(C(=O)c4ccc(F)cc4)CC3)o1)C(C)(C)CCC2(C)C [Compound 573],37%
9,Cc1cc2c(cc1Cc1ccc(C(=O)NC(CO)C(C)C)o1)C(C)(C)CCC2(C)C (centres unmarked) [Compound 574],13%
10,Cc1cc2c(cc1Cc1ccc(C(=O)N(CCN(C)C)Cc3cccc4ccccc34)o1)C(C)(C)CCC2(C)C [Compound 575],-3%
11,Cc1cc2c(cc1Cc1ccc(C(=O)N(C)CC3OCCO3)o1)C(C)(C)CCC2(C)C [Compound 576],15%
12,CC(=O)N1CCN(C(=O)c2ccc(Cc3cc4c(cc3C)C(C)(C)CCC4(C)C)o2)CC1 [Compound 577],30%
13,COc1ccc(C(NC(=O)c2ccc(Cc3cc4c(cc3C)C(C)(C)CCC4(C)C)o2)C2CC2)cc1 (centres unmarked) [Compound 578],17%
14,Cc1cc2c(cc1Cc1ccc(C(=O)N3CC(C)CC(C)C3)o1)C(C)(C)CCC2(C)C (centres unmarked) [Compound 579],10%
15,Cc1cc2c(cc1Cc1ccc(C(=O)N(C)CC#N)o1)C(C)(C)CCC2(C)C [Compound 580],18%
16,Cc1cc2c(cc1Cc1ccc(C(=O)N3CCN(c4cccc(C)c4C)CC3)o1)C(C)(C)CCC2(C)C [Compound 581],43%
17,Cc1cc2c(cc1Cc1ccc(C(=O)NC[C@@H]3CCCO3)o1)C(C)(C)CCC2(C)C [Compound 582],-2%
18,Cc1cc2c(cc1Cc1ccc(C(=O)N(CCCN3CCN(C)CC3)Cc3ccc(F)cc3)o1)C(C)(C)CCC2(C)C [Compound 583],-3%
19,Cc1cc2c(cc1Cc1ccc(C(=O)N(CC(C)C)CC(C)C)o1)C(C)(C)CCC2(C)C [Compound 584],15%
20,Cc1cc2c(cc1Cc1ccc(C(=O)N3CCC(Cc4ccccc4)CC3)o1)C(C)(C)CCC2(C)C [Compound 585],52%

# Same assay, conditions: substrate remaining; 10 uM compound; closer to zero = closer to 100% inhibition
row,Structure (SMILES),S%R 10 uM mGnRHR
1,Cc1cc2c(cc1Cc1ccc(C(=O)NCCc3c[nH]cn3)o1)C(C)(C)CCC2(C)C [Compound 527],10%
